ChEMBL document CHEMBL4043062, “Recent developments in the isolation, biological function, biosynthesis, and synthesis of phenazine natural products” (Bioorg Med Chem, 2017)
Converted amounts (≈) assume the structure as drawn.

Tested on: Mycobacterium tuberculosis
Assay: Antitubercular activity against rifampicin-resistant Mycobacterium tuberculosis ATCC 35338 harboring His-526-Tir mutation in rpoB gene after 7 days by Resazurin microtitre assay
Type: functional

C=CCC1Cc2c(c3ccccc3c3nc4ccccc4nc23)OC1(C)C (stereo unspecified) was tested, and the MIC was 2.2 µM (≈ 0.78 µg/mL).
